Measurements published in doi:10.1101/2025.03.13.642871v2 (biorxiv, 2026).

Tests used:
p300 bromodomain = biological target: T1, p300 bromodomain (Homo sapiens, UniProt Q09472); test: SPR, single-cycle kinetics, NTA chip; type: binding
T1 sequence (Q09472 1049-1156 limits assumed): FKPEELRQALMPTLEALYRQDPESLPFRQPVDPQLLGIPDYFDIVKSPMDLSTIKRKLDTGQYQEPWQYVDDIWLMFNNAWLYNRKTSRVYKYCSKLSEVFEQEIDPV

CREBBP = CREBBP (Homo sapiens, UniProt Q92793); test: cell-free H3K27 acetylation, immunoblot; type: biochemical
p300 = p300 (Homo sapiens, UniProt Q09472); test: cell-free H3K27 acetylation, immunoblot; type: biochemical
p300, sequence (Q09472 2-2414): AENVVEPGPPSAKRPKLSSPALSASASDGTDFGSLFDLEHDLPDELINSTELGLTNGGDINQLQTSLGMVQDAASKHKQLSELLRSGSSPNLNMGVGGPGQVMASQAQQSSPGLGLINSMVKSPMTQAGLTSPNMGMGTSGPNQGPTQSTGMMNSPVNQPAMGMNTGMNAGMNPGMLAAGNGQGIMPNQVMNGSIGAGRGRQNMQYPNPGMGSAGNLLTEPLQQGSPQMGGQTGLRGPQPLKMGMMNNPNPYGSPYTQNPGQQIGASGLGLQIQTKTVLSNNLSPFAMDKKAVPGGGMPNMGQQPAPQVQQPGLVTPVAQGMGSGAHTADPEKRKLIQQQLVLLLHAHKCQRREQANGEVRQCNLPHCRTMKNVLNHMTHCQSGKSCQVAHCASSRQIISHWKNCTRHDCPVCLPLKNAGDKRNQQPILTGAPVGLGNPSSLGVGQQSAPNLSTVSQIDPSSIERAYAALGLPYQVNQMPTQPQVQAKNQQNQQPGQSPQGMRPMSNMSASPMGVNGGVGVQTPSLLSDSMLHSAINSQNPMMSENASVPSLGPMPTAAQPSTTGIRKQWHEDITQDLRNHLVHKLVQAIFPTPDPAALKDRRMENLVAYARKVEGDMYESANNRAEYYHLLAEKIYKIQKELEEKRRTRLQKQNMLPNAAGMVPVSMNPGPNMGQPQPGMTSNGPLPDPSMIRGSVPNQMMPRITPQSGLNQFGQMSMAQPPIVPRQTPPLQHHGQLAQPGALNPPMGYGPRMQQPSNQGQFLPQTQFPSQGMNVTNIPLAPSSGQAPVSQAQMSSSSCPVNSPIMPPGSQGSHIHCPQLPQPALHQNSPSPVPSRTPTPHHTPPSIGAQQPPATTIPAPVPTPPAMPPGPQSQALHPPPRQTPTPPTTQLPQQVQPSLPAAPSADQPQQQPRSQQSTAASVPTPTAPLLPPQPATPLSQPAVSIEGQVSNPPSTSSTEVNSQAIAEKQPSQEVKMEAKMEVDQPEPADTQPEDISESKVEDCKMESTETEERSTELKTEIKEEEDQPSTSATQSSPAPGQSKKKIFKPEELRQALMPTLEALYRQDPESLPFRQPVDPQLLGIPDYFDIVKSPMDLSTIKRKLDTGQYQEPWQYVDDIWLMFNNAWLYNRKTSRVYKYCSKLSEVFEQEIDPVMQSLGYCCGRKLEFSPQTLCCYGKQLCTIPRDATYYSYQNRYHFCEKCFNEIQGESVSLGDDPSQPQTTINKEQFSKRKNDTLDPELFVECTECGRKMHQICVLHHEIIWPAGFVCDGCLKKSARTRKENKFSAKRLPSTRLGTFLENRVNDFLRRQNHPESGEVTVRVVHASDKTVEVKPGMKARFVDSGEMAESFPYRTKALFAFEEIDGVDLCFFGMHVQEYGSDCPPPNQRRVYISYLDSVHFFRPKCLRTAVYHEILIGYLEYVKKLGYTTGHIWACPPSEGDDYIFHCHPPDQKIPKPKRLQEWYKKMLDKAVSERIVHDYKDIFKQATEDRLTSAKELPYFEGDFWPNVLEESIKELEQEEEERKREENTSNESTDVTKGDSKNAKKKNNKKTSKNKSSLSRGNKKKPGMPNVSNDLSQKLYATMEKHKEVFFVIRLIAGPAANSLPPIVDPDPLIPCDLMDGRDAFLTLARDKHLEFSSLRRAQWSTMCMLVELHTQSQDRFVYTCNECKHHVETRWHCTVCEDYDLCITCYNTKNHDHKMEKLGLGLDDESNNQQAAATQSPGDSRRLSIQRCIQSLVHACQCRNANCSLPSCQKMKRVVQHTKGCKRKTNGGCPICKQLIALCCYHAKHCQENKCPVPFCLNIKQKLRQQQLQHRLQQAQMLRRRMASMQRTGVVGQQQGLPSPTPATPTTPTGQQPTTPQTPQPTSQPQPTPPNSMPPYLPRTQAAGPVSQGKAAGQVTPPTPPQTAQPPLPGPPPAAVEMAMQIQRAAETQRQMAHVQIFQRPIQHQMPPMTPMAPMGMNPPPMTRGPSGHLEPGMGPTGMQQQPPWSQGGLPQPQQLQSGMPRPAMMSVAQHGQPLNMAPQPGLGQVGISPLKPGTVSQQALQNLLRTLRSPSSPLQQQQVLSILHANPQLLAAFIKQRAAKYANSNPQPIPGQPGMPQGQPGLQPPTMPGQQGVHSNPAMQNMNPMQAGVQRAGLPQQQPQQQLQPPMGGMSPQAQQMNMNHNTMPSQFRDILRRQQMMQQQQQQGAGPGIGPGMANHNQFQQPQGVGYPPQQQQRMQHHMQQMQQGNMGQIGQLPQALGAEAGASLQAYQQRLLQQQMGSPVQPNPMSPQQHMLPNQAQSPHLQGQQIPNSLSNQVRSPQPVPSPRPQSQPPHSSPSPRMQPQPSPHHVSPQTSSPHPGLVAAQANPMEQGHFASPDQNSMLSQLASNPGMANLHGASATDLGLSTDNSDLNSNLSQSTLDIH

CREBBP, sequence (Q92793 2-2442): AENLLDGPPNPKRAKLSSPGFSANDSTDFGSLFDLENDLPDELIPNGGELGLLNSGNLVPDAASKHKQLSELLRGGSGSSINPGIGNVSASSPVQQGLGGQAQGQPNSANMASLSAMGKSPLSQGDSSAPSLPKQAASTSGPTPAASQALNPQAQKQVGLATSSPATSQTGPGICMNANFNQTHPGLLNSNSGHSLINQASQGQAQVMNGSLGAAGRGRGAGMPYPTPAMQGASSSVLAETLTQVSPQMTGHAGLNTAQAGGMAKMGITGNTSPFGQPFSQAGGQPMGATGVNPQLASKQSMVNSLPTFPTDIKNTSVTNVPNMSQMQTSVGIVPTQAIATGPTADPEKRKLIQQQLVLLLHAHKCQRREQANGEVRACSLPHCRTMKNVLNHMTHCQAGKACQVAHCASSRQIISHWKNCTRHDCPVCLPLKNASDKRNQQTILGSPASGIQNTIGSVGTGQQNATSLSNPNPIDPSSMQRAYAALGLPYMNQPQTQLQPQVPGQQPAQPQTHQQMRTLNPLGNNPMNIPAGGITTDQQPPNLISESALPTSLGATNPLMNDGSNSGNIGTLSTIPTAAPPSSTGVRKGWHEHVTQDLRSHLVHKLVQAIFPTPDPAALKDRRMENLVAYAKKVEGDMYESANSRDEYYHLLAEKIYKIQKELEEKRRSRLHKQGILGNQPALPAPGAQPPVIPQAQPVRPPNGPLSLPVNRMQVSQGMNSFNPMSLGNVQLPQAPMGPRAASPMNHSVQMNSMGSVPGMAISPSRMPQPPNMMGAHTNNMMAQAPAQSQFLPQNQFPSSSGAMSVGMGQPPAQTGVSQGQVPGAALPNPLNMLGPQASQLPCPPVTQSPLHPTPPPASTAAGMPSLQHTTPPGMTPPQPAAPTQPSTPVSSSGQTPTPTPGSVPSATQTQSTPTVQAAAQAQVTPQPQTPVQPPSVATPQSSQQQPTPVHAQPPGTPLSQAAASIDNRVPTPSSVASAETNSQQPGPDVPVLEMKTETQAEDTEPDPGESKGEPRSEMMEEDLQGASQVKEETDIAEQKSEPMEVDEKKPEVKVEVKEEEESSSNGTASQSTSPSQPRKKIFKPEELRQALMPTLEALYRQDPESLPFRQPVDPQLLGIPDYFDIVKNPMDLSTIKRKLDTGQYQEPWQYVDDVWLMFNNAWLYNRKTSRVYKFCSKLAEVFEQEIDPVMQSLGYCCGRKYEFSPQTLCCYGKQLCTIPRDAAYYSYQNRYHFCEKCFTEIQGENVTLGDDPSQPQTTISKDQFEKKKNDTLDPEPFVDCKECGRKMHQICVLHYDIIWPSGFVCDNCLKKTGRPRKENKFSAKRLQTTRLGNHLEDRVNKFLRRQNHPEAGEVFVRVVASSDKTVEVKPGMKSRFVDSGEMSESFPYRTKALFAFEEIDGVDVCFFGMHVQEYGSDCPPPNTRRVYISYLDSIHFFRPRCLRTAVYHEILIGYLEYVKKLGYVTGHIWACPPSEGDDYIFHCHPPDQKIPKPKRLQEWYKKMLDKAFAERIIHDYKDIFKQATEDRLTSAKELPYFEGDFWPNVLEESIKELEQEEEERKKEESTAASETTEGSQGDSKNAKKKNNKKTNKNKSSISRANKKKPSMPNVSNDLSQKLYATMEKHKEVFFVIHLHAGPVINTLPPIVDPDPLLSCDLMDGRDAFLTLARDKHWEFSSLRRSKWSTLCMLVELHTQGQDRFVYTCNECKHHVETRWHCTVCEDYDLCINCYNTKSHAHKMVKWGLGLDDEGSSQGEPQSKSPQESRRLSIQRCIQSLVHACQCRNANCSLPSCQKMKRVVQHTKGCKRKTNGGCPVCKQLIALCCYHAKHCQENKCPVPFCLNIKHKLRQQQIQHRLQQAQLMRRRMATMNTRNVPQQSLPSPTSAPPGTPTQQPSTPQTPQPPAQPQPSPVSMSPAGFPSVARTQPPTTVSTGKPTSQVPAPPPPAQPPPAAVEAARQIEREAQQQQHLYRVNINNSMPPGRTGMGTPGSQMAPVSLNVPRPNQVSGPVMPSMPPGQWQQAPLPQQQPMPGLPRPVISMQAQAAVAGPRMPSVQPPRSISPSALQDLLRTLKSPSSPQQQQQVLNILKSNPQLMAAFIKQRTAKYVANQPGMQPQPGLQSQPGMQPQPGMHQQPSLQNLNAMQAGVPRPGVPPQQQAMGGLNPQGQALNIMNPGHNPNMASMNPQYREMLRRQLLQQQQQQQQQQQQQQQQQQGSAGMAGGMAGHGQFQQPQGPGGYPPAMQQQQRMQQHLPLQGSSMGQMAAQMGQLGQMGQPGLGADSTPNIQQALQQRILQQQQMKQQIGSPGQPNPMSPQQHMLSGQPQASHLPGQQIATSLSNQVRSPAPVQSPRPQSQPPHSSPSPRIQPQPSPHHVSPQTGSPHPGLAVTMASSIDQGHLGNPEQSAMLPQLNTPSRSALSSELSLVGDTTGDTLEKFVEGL

Compound: CCOc1cccc(OCCN(C)C)c1C(=O)Nc1ccc(Cl)c(C(F)(F)F)c1 [YF2]
- Kd (p300 bromodomain): 4.42 µM
- EC50 (CREBBP): 15.8 µM
- EC50 (p300): 4.32 µM
